For 25 compounds, IC50 results are on record in patent US20060223846A1, “Aza-bridged-bicyclic amino acid derivatives as alpha4 integrin antagonists” (priority 2005, published 2006).

One assay concerns the target T1, human α4β7 (Homo sapiens, UniProt P13612+P26010).
T1 construct: expressed in transfected cells
T1 sequence (P13612 34-1032): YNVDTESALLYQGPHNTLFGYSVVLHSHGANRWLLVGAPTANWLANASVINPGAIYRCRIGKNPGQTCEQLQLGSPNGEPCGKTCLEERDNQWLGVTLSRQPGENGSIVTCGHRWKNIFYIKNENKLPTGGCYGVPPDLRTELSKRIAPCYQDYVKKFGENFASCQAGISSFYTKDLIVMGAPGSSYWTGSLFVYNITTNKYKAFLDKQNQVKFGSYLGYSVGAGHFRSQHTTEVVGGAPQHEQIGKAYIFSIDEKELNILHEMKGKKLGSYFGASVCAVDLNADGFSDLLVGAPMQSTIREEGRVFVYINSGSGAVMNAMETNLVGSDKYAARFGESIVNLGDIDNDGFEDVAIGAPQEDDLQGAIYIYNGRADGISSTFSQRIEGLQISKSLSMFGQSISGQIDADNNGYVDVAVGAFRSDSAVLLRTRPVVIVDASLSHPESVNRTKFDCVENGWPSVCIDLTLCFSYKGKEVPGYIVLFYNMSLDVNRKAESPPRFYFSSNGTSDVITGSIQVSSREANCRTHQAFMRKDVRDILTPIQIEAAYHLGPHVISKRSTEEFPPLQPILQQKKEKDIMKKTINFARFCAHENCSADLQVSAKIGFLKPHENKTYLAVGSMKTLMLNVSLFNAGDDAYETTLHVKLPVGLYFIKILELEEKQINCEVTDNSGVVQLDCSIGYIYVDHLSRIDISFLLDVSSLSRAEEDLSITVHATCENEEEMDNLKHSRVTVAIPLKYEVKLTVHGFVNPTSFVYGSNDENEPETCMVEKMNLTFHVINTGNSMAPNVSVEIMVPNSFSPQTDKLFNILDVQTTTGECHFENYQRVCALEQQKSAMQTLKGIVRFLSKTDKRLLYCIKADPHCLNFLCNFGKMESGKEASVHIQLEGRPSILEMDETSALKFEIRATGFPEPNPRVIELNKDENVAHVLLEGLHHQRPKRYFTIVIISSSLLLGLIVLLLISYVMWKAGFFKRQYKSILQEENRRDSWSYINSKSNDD
T1 sequence (P26010 20-798): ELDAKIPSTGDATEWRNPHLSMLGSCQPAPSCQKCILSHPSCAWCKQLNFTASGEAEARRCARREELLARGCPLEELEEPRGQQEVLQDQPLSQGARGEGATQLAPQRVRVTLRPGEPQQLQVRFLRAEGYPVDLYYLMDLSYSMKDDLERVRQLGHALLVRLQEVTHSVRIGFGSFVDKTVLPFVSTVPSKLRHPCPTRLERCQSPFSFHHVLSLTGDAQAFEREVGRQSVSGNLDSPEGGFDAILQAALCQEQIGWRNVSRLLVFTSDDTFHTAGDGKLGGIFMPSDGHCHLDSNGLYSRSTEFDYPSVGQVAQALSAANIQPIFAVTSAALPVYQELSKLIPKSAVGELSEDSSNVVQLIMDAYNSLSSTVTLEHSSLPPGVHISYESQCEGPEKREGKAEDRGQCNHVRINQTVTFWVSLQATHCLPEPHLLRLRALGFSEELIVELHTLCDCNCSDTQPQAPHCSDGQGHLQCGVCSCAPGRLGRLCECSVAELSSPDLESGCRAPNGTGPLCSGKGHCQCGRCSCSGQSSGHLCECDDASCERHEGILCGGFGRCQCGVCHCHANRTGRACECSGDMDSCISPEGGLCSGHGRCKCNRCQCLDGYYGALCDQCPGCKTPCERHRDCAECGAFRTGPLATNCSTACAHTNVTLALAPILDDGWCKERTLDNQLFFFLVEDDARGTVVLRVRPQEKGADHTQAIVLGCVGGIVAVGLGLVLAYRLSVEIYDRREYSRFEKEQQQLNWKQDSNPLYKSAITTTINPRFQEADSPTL
The assay is described as follows: α4β7-K562 Cell Adhesion Assay (α4β7 Mediated Adhesion/VCAM-1). The assay is classed as cell-based. The note with it: K562 cells expressing human α4β7 on recombinant hVCAM-1; read-out: α4β7 IC50. How it is done: (§1) α4β7-K562 Cell Adhesion Assay (α4β7 Mediated Adhesion/VCAM-1) Immulon 96 well plates (Dynex) were coated with 100 μL recombinant hVCAM-1 at 4.0 μg/mL in 0.05 M NaCO3 buffer pH 9.0 overnight at 4° C. (R&D System). Plates were washed 3 times in PBS with 1% BSA and blocked for 1 h @ room temperature in this buffer. PBS was removed and compounds to be tested (50 μL) were added at 2× concentration. A stable cell line of K562 cells expressing human α4β7, (50 μL at 2×10^6/mL) labeled with 5 μM Calcein AM (Molecular Probes) for 1 h at 37° C., were added to each well and allowed to adhere for 1 h at room temperature. Plates were washed 3× in PBS+1% BSA and cells were lysed for 15 minutes in 100 μL of 1 M Tris pH 8.0 with 1% SDS. The plate was read at 485 nm excitation and 530 nm emission.

The next assay has as its target α4β1 (Homo sapiens, UniProt P05556+P13612). As to the kind of experiment: Ramos Cell Adhesion Assay (α4β1 Mediated Adhesion/VCAM-1). The assay is classed as cell-based. The note with it: Ramos cells on recombinant hVCAM-1; read-out: α4β1 IC50. The arrangement: Ramos cells, (50 μL at 2×10^6/mL) labeled with 5 μM Calcein AM; endogenous in cells; host or cells: Ramos cells. As for the experimental part:
as §1, with “Ramos” for “α4β7-K562”, “α4β1” for “(α4β7”, “[…]” for “96”, “Systems).” for “System).”, “Ramos cells,” for “A stable cell line of K562 cells expressing human α4β7,”

Sequence of α4β1 (P05556 21-798, one chain of several): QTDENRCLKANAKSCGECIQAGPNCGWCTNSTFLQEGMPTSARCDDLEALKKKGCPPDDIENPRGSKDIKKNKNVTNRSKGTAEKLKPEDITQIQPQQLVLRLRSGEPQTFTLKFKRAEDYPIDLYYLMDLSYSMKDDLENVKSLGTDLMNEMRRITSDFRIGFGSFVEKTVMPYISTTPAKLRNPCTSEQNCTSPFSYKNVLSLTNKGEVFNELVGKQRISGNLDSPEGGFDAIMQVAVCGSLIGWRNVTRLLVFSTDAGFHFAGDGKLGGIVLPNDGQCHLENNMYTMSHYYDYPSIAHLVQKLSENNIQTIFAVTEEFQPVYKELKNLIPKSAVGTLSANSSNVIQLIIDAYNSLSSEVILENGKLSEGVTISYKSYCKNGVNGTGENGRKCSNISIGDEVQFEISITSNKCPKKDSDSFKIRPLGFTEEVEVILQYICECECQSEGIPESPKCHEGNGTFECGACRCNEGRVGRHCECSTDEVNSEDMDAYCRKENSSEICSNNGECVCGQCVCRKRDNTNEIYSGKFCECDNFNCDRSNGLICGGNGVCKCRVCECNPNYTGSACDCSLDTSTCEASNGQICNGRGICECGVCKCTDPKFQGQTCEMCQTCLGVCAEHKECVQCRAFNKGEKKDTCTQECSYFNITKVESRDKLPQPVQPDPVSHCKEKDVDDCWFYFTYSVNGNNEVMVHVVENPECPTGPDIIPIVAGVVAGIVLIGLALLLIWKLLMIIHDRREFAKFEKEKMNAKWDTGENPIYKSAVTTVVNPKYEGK

Take `O=C(Nc1ccc(CC(NC(=O)C2C3CCC(CC3)N2C(=O)CCc2cc(C(F)(F)F)cc(C(F)(F)F)c2)C(=O)O)cc1)c1c(Cl)cncc1Cl` (centres unmarked) [Cpd 55]: the values for the IC50 on human α4β7 and on α4β1 were 181 nM and 72 nM, respectively.
Taken in the same sequence, the figures for `CC(=Cc1ccccc1)C(=O)N1C2CCC(CC2)C1C(=O)NC(Cc1ccc(NC(=O)c2c(Cl)cncc2Cl)cc1)C(=O)O` (centres unmarked) [Cpd 40] were 943 nM and 77 nM.
Taken in the same sequence, the figures for `O=C(Nc1ccc(CC(NC(=O)C2C3CCC(CC3)N2C(=O)CCc2ccc(Cl)cc2)C(=O)O)cc1)c1c(Cl)cncc1Cl` (centres unmarked) [Cpd 51] were 24 nM and 3 nM.
Taken in the same sequence, the figures for `O=C(Nc1ccc(CC(NC(=O)C2C3CCC(CC3)N2C(=O)Cc2csc3ccccc23)C(=O)O)cc1)c1c(Cl)cncc1Cl` (centres unmarked) [Cpd 36] were 66 nM and 55 nM.
For `Cc1ccc(NC(=O)N2C3CCC(CC3)[C@H]2C(=O)N[C@@H](Cc2ccc(NC(=O)c3c(Cl)cncc3Cl)cc2)C(=O)O)cc1` [Cpd 21, 3-{4-[(3,5-dichloro-pyridine-4-carbonyl)-amino]-phenyl}-2-[(2-p-tolylcarbamoyl-2-aza-bicyclo[2.2.2]octane-3-carbonyl)-amino]-propionic acid], the IC50 at human α4β7 is 124 nM; on α4β1 it was 585 nM.
Taken in the same sequence, the figures for `O=C(Nc1ccc(CC(NC(=O)C2C3CCC(CC3)N2C(=O)Cc2cccs2)C(=O)O)cc1)c1c(Cl)cncc1Cl` (centres unmarked) [Cpd 32] were 30 nM and 12 nM.
Take `O=C(Nc1ccc(CC(NC(=O)C2C3CCC(CC3)N2C(=O)Cc2ccc3ccccc3c2)C(=O)O)cc1)c1c(Cl)cncc1Cl` (centres unmarked) [Cpd 7]: the IC50 was 44 nM on human α4β7 and 63 nM on α4β1.
Turning to `COc1ccc(CC(=O)N2C3CCC(CC3)C2C(=O)NC(Cc2ccc(NC(=O)c3c(Cl)cncc3Cl)cc2)C(=O)O)cc1` (centres unmarked) [Cpd 30], the IC50 was 71 nM at human α4β7 and 115 nM on α4β1.
Taken in the same sequence, the figures for `O=C(Nc1ccc(CC(NC(=O)C2C3CCC(CC3)N2C(=O)CCC2CCCC2)C(=O)O)cc1)c1c(Cl)cncc1Cl` (centres unmarked) [Cpd 28] were 150 nM and 89 nM.
With `O=C(Nc1ccc(CC(NC(=O)C2C3CCC(CC3)N2C(=O)Cc2ccsc2)C(=O)O)cc1)c1c(Cl)cncc1Cl` (mixture of isomers) [Cpd 60], the figures for the IC50 on human α4β7 and on α4β1 were 233 nM and 156 nM, respectively.
Taken in the same sequence, the figures for `CC(C)(C)CC(=O)N1C2CCC(CC2)C1C(=O)NC(Cc1ccc(NC(=O)c2c(Cl)cncc2Cl)cc1)C(=O)O` (single isomer, unassigned) [Cpd 34] were 47 nM and 14 nM.
Taken in the same sequence, the figures for `O=C(Nc1ccc(CC(NC(=O)C2C3CCC(CC3)N2C(=O)Nc2cccc(Cl)c2)C(=O)O)cc1)c1c(Cl)cncc1Cl` (centres unmarked) [Cpd 23] were 444 nM and 248 nM.
Taken in the same sequence, the figures for `O=C(Nc1ccc(CC(NC(=O)C2C3CCC(CC3)N2C(=O)CCc2ccccc2F)C(=O)O)cc1)c1c(Cl)cncc1Cl` (centres unmarked) [Cpd 52] were 46 nM and 3 nM.
In the case of `O=C(Nc1ccc(CC(NC(=O)C2C3CCC(CC3)N2C(=O)C#Cc2ccccc2)C(=O)O)cc1)c1c(Cl)cncc1Cl` (centres unmarked) [Cpd 57], the IC50 at human α4β7 is 27 nM; on α4β1, 9 nM.
Taken in the same sequence, the figures for `O=C(Nc1ccc(CC(NC(=O)C2C3CCC(CC3)N2C(=O)Cc2csc3ccccc23)C(=O)O)cc1)c1c(Cl)cncc1Cl` (centres unmarked) [Cpd 62] were 565 nM and 292 nM.
Taken in the same sequence, the figures for `O=C(Nc1ccc(CC(NC(=O)C2C3CCC(CC3)N2C(=O)Nc2ccccc2Cl)C(=O)O)cc1)c1c(Cl)cncc1Cl` (centres unmarked) [Cpd 22] were 670 nM and 380 nM.
For `COc1cccc(CC(=O)N2C3CCC(CC3)C2C(=O)NC(Cc2ccc(NC(=O)c3c(Cl)cncc3Cl)cc2)C(=O)O)c1` (centres unmarked) [Cpd 59], the values for the IC50 on human α4β7 and on α4β1 were 255 nM and 504 nM, respectively.
Taken in the same sequence, the figures for `O=C(Nc1ccc(CC(NC(=O)C2C3CCC(CC3)N2C(=O)c2ccccc2Oc2ccccc2)C(=O)O)cc1)c1c(Cl)cncc1Cl` (centres unmarked) [Cpd 63] were 66 nM and 55 nM.
For `O=C(Nc1ccc(CC(NC(=O)C2C3CCC(CC3)N2C(=O)c2cc(Cl)cc(Cl)c2)C(=O)O)cc1)c1c(Cl)cncc1Cl` (centres unmarked) [Cpd 10], the values for the IC50 at human α4β7 and on α4β1 were 185 nM and 842 nM, respectively.
Taken in the same sequence, the figures for `CCCCCC12CCC(C(=O)N3C4CCC(CC4)C3C(=O)NC(Cc3ccc(NC(=O)c4c(Cl)cncc4Cl)cc3)C(=O)O)(CC1)CC2` (mixture of isomers) [Cpd 13] were more than 5000 nM and more than 5000 nM.
Turning to `O=C(Nc1ccc(CC(NC(=O)C2C3CCC(CC3)N2C(=O)OCc2ccccc2)C(=O)O)cc1)c1c(Cl)cncc1Cl` (centres unmarked) [Cpd 42], the IC50 is 24 nM on human α4β7 and 8 nM on α4β1.
Taken in the same sequence, the figures for `COc1ccc(OC)c(C(=O)N2C3CCC(CC3)C2C(=O)NC(Cc2ccc(NC(=O)c3c(Cl)cncc3Cl)cc2)C(=O)O)c1` (centres unmarked) [Cpd 8] were 1020 nM and 188 nM.
Taken in the same sequence, the figures for `O=C(Nc1ccc(CC(NC(=O)C2C3CCC(CC3)N2C(=O)CCN2CCNCC2)C(=O)O)cc1)c1c(Cl)cncc1Cl` (centres unmarked) [Cpd 53] were 141 nM and 3 nM.
Regarding `CC(C)(C)OC(=O)N1CCN(CCC(=O)N2C3CCC(CC3)C2C(=O)NC(Cc2ccc(NC(=O)c3c(Cl)cncc3Cl)cc2)C(=O)O)CC1` (centres unmarked) [Cpd 35], the results for the IC50 on human α4β7 and at α4β1 were more than 5000 nM and 122 nM, respectively.
Taken in the same sequence, the figures for `O=C(Nc1ccc(CC(NC(=O)C2C3CCC(CC3)N2C(=O)Cc2c(Cl)cccc2Cl)C(=O)O)cc1)c1c(Cl)cncc1Cl` (centres unmarked) [Cpd 6] were 387 nM and 234 nM.

What is called IC50 is the point on the concentration scale where inhibition reaches its midpoint.
